Experimental data taken from patent US20210207070A1, “A CELL CULTURING PLATFORM, A CELL CULTURE SYSTEM, AND A METHOD FOR MODELING NEURAL ACTIVITY IN VITRO” (Tampere University Foundation sr, priority 2018, published 2021).

Test system: neurons
Assay: Activity of neurons in the closed-loop cell culturing platform, measured with electrodes in the guiding tunnels
Assay type: cell-based
Conditions: kainate acid added to the compartment Area 1; FIG. 5c
Description: FIGS. 5a and 5b illustrate activity of neurons in a cell culturing platform according to an exemplifying and non-limiting embodiment. FIG. 5a illustrates signals measured with electrodes in the compartments of the cell culturing platform. The compartments are denoted with references ‘Area 1’, ‘Area 2’, and ‘Area 3’. As shown by black arrows in FIG. 5a, there is synchronous activity in the compartments Area 1, Area 2, and Area 3. […] of the cell culturing platform. The signals measured with electrodes in the guiding tunnels between the compartments Area 2 and Area 3 are denoted with a reference ‘2-3’, the signals measured with electrodes in the guiding tunnels between the compartments Area 1 and Area 2 are denoted with a reference ‘1-2’, and the signals measured with electrodes in the guiding tunnels between the compartments Area 3 and Area 1 are denoted with a reference ‘3-1’. As shown by black arrows in FIG. 5b, there is synchronous activity in the guiding tunnels between different pairs of the compartments.
FIG. 5c illustrates an effect of adding kainate acid to the compartment Area 1.

Compound: C=C(C)[C@H]1CN[C@H](C(=O)O)[C@H]1CC(=O)O [kainate acid]
- activity measured with electrodes in the guiding tunnels between the compartments Area 1 and Area 2: increases the activity
- activity measured with electrodes in the guiding tunnels between the compartments Area 2 and Area 3: substantially on the base level
- activity measured with electrodes in the guiding tunnels between the compartments Area 3 and Area 1: increases the activity
